Legend:
[1] = target: T1, phosphorylated ERBB2 (pERBB2) (Homo sapiens, UniProt P04626); assay: Detection of phosphorylated ERBB2 (pERBB2) by ELISA in BT-474 cells; assay type: cell-based; conditions: four hours incubation with compound, OD 450 nm
T1 construct: endogenous in cells; host or cells: BT-474
Summary of the method: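 BT-474 cells were treated for 4 h at 37 °C with four-fold compound dilutions from 10 μM to 0.01 nM final, then lysed. Phospho-ERBB2 in the lysates was measured by ELISA with TMB read-out at 450 nm. Relative activity was normalised between cell-free wells and 0.1% DMSO-treated cells.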

ERBB2/HER2 = ERBB2/HER2 (Homo sapiens, UniProt P04626); assay: Reaction Biology kinase activity assay (33P-ATP, HotSpot); assay type: biochemical; conditions: final enzyme concentration 50 nM; 100 μM 33P-ATP; 20 min preincubation, 2 hours at 25° C.
Sequence of ERBB2/HER2 (P04626 23-1255): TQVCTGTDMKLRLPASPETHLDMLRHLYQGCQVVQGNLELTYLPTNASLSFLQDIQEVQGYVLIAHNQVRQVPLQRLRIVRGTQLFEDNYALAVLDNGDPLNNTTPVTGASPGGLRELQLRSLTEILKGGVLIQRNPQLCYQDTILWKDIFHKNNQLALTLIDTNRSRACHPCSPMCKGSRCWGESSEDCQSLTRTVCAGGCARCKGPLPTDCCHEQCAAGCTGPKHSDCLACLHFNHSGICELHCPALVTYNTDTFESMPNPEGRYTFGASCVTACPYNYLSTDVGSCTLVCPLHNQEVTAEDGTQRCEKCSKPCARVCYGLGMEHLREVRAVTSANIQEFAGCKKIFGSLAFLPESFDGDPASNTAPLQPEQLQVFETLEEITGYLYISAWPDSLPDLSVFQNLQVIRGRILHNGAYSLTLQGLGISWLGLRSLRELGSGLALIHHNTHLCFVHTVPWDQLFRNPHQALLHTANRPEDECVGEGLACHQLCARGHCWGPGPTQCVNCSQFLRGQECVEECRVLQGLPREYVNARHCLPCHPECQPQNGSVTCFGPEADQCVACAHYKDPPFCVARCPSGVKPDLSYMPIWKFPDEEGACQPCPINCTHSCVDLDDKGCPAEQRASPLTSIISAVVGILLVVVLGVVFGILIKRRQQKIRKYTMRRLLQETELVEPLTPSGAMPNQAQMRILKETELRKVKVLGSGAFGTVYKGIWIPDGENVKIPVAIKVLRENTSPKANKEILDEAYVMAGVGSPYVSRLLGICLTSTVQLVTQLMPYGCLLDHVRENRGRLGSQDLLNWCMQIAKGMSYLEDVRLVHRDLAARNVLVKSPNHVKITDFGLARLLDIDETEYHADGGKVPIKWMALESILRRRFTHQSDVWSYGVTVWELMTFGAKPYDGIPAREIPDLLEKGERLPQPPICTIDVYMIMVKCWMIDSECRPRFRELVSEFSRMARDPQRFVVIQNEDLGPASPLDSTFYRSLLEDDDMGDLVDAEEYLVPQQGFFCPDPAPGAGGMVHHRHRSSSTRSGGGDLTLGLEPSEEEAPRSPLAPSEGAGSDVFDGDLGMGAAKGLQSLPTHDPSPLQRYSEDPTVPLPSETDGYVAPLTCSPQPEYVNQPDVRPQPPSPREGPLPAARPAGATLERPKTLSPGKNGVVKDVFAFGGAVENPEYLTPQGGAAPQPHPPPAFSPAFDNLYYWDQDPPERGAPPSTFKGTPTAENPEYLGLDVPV
Method: (§1) Inhibition of kinase activity was assessed using a kinase activity assay (Anastassiadis, T. et al. Nat Biotechnol 2011 29: 1039-1045). In particular, substrate (poly Glu-Tyr sodium salt (Sigma Aldrich, cat #P7244)) was freshly prepared in reaction buffer (20 mM Hepes (pH 7.5), 10 mM MgCl2, 1 mM EGTA, 0.02% Brij35, 0.02 mg/ml BSA, 0.1 mM Na3VO4, 2 mM DTT, 1% DMSO). EGFR, ERBB2 or ERBB2 mutant kinases were added to the substrate solution and mixed at the final concentrations in Table B1, below. Compounds were dissolved in 100% DMSO and the resulting solutions were added to the kinase reaction mixture. The kinase reaction mixture was incubated with the compounds for 20 minutes at room temperature. 100 μM ^33P-ATP (Specific activity 10 μCi/μl) was then added to initiate the reaction. This mixture was incubated for 2 hours at 25° C.
(§2) Reactions were spotted onto P81 ion exchange filter paper (Whatman). Unbound phosphate was removed by extensive washing of filters in 0.75% phosphoric acid. Radioactivity was detected using a HotSpot, a proprietary technology of Reaction Biology Corporation (Anastassiadis, T. et al., Nat Biotechnol. 2011 29(11):1039-45). Kinase activity data were expressed as the percentage kinase activity remaining in test samples relative to vehicle only (i.e., DMSO only) control reactions. IC50 values and curve fits were obtained using Prism (GraphPad Software), using a nonlinear regression model with a sigmoidal dose response and are shown in Table B1.

ERBB2 (V777L) = ERBB2 (V777L) (Homo sapiens, UniProt P04626, V777L); assay: as above; assay type: biochemical; conditions: final enzyme concentration 40 nM; 100 μM 33P-ATP; 20 min preincubation, 2 hours at 25° C.
Method: as §1, §2

ERBB2 (P1170A) = ERBB2 (P1170A) (Homo sapiens, UniProt P04626, P1170A); assay: as above; assay type: biochemical; conditions: final enzyme concentration 20 nM; 100 μM 33P-ATP; 20 min preincubation, 2 hours at 25° C.
Sequence of ERBB2 (P1170A) (P04626 23-1255 P1170A): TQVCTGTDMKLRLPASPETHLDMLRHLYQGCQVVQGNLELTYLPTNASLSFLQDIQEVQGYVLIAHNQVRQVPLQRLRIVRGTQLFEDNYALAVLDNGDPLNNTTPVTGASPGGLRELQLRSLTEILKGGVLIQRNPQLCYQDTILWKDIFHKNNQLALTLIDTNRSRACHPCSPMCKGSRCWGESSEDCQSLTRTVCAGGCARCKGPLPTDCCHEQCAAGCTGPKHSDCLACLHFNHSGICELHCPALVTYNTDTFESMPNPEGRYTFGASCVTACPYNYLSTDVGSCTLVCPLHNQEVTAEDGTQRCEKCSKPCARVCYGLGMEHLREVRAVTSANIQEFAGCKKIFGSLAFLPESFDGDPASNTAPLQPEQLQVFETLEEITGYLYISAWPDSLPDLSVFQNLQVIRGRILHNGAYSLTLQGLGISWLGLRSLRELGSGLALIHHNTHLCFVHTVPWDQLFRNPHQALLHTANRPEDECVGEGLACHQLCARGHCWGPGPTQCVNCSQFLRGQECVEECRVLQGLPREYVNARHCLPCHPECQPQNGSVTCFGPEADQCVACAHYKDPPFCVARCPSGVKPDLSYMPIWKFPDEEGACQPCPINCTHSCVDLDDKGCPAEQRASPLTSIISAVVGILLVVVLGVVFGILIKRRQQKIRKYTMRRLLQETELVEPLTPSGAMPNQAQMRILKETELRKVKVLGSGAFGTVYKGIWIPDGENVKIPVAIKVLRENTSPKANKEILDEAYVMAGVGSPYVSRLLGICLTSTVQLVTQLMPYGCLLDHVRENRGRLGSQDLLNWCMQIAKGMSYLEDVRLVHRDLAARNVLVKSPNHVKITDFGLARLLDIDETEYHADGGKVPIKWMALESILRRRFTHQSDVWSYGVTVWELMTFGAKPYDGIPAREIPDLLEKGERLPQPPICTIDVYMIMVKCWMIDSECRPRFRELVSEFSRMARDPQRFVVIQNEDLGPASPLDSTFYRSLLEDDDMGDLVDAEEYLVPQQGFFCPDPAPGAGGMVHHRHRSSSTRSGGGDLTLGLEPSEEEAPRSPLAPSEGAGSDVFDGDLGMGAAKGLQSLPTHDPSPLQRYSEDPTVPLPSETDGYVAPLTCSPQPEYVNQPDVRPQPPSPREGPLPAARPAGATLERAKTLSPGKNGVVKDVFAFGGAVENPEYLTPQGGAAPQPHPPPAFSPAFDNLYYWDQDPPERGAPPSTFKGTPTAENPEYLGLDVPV
Method: as §1, §2

A431 cells = assay: Cell viability assay (CellTiter Glo); assay type: cell-based; conditions: Homo sapiens, A-431; 72 hours; 1500 cells per well, 384-well; DMEM + 10% FBS
Method: (§3) Cells were treated with compounds, and cell viability was measured as a metric of kinase inhibition.
(§4) The Ba/F3 cell line is IL-3-dependent mouse cell line derived from the C3H mouse strain. Ba/F3 cell lines were engineered to express human ERBB2 or EGFR kinases, rendering the cells IL-3 independent. The lines were generated via retroviral transduction utilizing a Moloney murine leukemia virus (MMLV) promoter, and constructs are stably integrated into the cell genome.
(§5) Similarly, Ba/F3 cell lines engineered to express EGFR, ERBB2, or ERBB2 mutants were grown, harvested, counted and seeded at 3000 cells per well in 96-well plates for the data sets shown in Tables B3-B4, and seeded at 300 cells per well in 384-well plates for the data set shown in Table B5. A subset of wells contained media only (low control, “LC”).
(§6) Table B2 provides the growth media and number of cells seeded per well for the each cell line.
(§7) Compounds were dissolved in DMSO and serially diluted. Serially-diluted compound or a DMSO only control (high control, “HC”) was added to the plated cells in each well. […] The final proportion of DMSO never exceeded 0.1%.
(§8) Plates were placed in a 37° C., 5% CO2 incubator for 72 hours. Plates were then removed from the incubator and equilibrated for 15 minutes at room temperature. 40 IA of CellTiter Glo reagent (Promega) was added to measure the relative level of metabolically active cells by quantifying intracellular ATP concentrations. Plates were incubated for 30 minutes at room temperature, and luminescence was measured. Percent viability was normalized to a vehicle control only using the following formula: % viability=100×(LumSample−LumLC) (LumHC−LumLC). Graphical curves were fitted using a nonlinear regression model with a sigmoidal dose response.

MDA-MB-175VII cells = assay: Cell viability assay (CellTiter Glo); assay type: cell-based; conditions: Homo sapiens, 72 hours, 2000 cells per well, 384-well, RPMI + 10% FBS
Method: as §3, §4, §5, §6, §7, §8

BT-474 cells = assay: Cell viability assay (CellTiter Glo); assay type: cell-based; conditions: Homo sapiens, 72 hours, 2000 cells per well, 384-well, DMEM + 10% FBS
Method: as §3, §4, §5, §6, §7, §8

Ba/F3 EGFR wt = target: T2, Ba/F3 EGFR wt (Homo sapiens, UniProt P00533); assay: Cell viability assay (CellTiter Glo); assay type: cell-based, mouse; conditions: 72 hours; 3000 cells per well, 96-well plates; read-out: Cell viability IC50, nM, Ba/F3 EGFR wt
T2 construct: Ba/F3 cell lines were engineered to express human ERBB2 or EGFR kinases, rendering the cells IL-3 independent
T2 sequence (P00533 whole entry, change not shown): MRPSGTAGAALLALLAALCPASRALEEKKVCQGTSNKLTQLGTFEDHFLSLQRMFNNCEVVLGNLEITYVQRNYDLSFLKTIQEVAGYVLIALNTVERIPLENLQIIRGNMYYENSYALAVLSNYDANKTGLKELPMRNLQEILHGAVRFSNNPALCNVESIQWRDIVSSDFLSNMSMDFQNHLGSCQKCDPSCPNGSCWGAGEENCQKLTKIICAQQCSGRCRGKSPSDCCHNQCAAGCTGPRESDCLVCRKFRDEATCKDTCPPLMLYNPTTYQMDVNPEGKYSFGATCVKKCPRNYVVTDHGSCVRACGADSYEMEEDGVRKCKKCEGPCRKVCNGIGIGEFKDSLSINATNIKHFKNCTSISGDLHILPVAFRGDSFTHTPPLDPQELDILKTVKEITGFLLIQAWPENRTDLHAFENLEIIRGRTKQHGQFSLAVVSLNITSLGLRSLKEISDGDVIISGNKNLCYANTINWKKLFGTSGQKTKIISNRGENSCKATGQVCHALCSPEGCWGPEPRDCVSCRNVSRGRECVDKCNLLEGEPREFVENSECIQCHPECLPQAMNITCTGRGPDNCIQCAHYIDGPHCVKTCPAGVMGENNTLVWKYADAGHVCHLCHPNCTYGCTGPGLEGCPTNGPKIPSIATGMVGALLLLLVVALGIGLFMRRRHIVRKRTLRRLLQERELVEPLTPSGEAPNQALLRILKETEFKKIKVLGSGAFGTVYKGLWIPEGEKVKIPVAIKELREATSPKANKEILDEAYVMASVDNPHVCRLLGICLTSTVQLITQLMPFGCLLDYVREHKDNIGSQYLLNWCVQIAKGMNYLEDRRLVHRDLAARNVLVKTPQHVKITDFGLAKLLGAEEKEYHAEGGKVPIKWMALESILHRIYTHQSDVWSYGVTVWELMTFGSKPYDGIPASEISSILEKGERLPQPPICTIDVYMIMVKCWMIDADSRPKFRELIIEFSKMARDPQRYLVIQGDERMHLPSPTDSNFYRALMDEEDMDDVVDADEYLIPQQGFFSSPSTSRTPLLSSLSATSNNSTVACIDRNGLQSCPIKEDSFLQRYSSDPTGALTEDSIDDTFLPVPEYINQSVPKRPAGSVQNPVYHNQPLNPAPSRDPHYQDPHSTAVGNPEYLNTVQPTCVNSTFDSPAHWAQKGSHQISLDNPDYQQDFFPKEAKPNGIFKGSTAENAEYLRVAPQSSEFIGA
Summary of the method: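 Murine Ba/F3 cells made IL-3-independent by retroviral human EGFR or ERBB2 were seeded at 3000 or 300 cells per well and exposed to serially diluted compound (DMSO ≤0.1%) for 72 hours at 37° C, 5% CO2. CellTiter Glo luminescence was normalised to DMSO and media-only controls and fitted to a sigmoidal dose-response.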

T1 sequence (P04626 23-1255): as the sequence (P04626 23-1255) above

IC50 [1] | IC50 (ERBB2/HER2) | IC50 (ERBB2 (V777L)) | IC50 (ERBB2 (P1170A)) | IC50 (A431 cells) | IC50 (MDA-MB-175VII cells) | IC50 (BT-474 cells) | SMILES | GI50 (Ba/F3 EGFR wt)
7.05 nM |  |  |  |  |  |  | CC#CC(=O)Nc1cc2c(Nc3ccc(Oc4ccn5ncnc5c4)c(C)c3)ncnc2cc1OCCN(C)C [Compound 150, N-[7-[2-(dimethylamino)ethoxy]-4-[(3-methyl-4-[[1,2,4]triazolo[1,5-a]pyridin-7-yloxy]phenyl)amino]quinazolin-6-yl]but-2-ynamide] | 
10.3 nM | 0.49 nM | 1.38 nM | 0.68 nM | 1730 nM | 9 nM | 3.89 nM | CC#CC(=O)Nc1ccc2ncnc(Nc3ccc(Oc4ccn5ncnc5c4)c(C)c3)c2c1 [Compound 1, N-[4-[(3-methyl-4-[[1,2,4]triazolo[1,5-a]pyridin-7-yloxy]phenyl)amino]quinazolin-6-yl]but-2-ynamide] | 2750 nM
23.1 nM | 3.07 nM | 4.3 nM | 3.99 nM | > 10000 nM | 89 nM | 41.8 nM | Cc1cc(Nc2ncnc3ccc(NC4=NC(C)(C)CO4)cc23)ccc1Oc1ccn2ncnc2c1 [Tucatinib, tucatinib, reference compound] | > 10000 nM

— patent publication US20230265098A1, “ALKYNE QUINAZOLINE DERIVATIVES AS INHIBITORS OF ERBB2” (EnLiven Therapeutics, Inc., priority 2020, published 2023)
